Data as given in patent US11965201B2, “Arginine supplementation to improve efficiency in gas fermenting acetogens” (LanzaTech NZ, Inc., priority 2015, dated 2024).

How the values were obtained:
Format in all cases: cell-based, Clostridium autoethanogenum
[1] = tested on: C. autoethanogenum DSM 23693; assay: Autotrophic growth and acetate production on CO/CO2/H2 gas mix with arginine supplementation; settings: for decrease of doubling time by arginine supplementation: vs control without arginine
Method: Growth was carried out in PETC-MES medium without yeast extract (Table 1) using standard anaerobic techniques (Hungate, Meth Microbiol, 3B: 117-132, 1969; Wolfe, Adv Microb Physiol, 6: 107-146, 1971) and 22 psi of CO/CO2/H2 gas mix (composition: 50% CO, 20% CO2, […], 28% N2) headspace pressure.
To study effect of supplementation with arginine, 5 g/L of arginine was added to the media and culture growth and metabolite production during autotrophic growth was compared to the control without arginine.
Growth was followed by measuring the optical density using a Thermo Genesys 20 spectrophotometer. […] Samples were prepared by diluting 400 μL with 100 μL of 5-sulfosalicylic acid solution (1% w/v in 1 M sulphuric acid), followed by a 3 minute centrifugation at 14,000 rpm; the supernatant was transferred to a glass vial for analysis. Separation was carried out with a 10 μL injection on to an Alltech IOA-2000 column (150 mm×6.5 mm×8 μm) at 0.7 mL/min and 65° C. under isocratic conditions, using 5 mM sulphuric acid mobile phase.
The experiment was carried out in two biological repeats with triplicate cultures (n=3) for each condition in a volume of 40 mL media in 1 L Schott bottles at 37° C. with orbital shaking (120 rpm, shake orbit). In each case, acetogenic strain C. autoethanogenum DSM 23693 was pre-cultured in PETC-MES without yeast extract to an OD600 nm of 0.3 and a single preculture was used for inoculation.
In the first experiment to the following conditions: PETC-MES without yeast extract+22 psi syngas (initial OD600 nm=0.005) and PETC-MES without yeast extract+22 psi syngas+5 g arginine/L (initial OD600 nm=0.005).
In the repeat of the experiment, a culture was also inoculated into arginine supplemented media but without the addition of CO/CO2/H2 gas (22 psi of 100% N2 as headspace). This experiment comprised the following three conditions: PETC-MES without yeast extract+22 psi syngas (initial OD600 nm=[…]), PETC-MES without yeast extract+22 psi syngas+5 g arginine/L (initial OD600 nm=0.003), and PETC-MES without yeast extract+5 g arginine/L (initial OD600 nm=0.003).

[2] = tested on: C. autoethanogenum DSM10061; assay: Heterotrophic batch growth in YE-free PETC-MES media with amino acid formulations + fructose (OD600)
Source text: YE-free PETC-MES media was supplemented with various amino acid formulations—20AA, 7AA, 8AA, 14AA, 12AA, 4AA and Arginine (Table 2)—to identify if any amino acids are supporting growth. Solutions were filter sterilized and made anoxic by sparging N2.
First, a 20AA medium was designed based on the biomass amino acid composition of Clostridium acetobutylicum (Lee et al. 2008) with final amino acid concentrations theoretically supporting production of 1 gDCW/L of biomass.
Growth studies were carried out in batch cultivations in a volume of 50 mL media in 125 mL serum bottles with nitrogen in the headspace under shaking (unless otherwise noted) at 37° C. Optical density (OD) was measured at 600 nm with the reading ˜0.5 outside the anaerobic chamber against fully oxidized medium as reference.

[3] = tested on: C. autoethanogenum DSM10061; assay: Continuous biomass monitoring with BugLab device in serum bottle; settings: before arginine depletion
Method: As the initial fast growth was unexpected, only a couple of samples could be used for calculating tD. Thus, a BugLab biomass monitoring device was attached to a serum bottle on 4AA medium to continuously monitor the increase of biomass before arginine is depleted from the medium. This experiment confirmed the fast growth on 4AAs before arginine depletion as tD was calculated to be ˜2 h (FIG. 10).
To obtain a more accurate value of tD on Arginine medium, a BugLab experiment was performed to continuously monitor the increase of biomass before arginine runs out. This experiment confirmed the fast growth before arginine runs out as tD was calculated to be ˜3 h (FIG. 14).

N=C(N)NCCC[C@H](N)C(=O)O [arginine]
growth on arginine without CO/CO2/H2 gas ([1]; 5 g arginine/L, N2 headspace, 48 hours): no growth observed
net acetate production ([1]; 5 g arginine/L, until pause in growth at OD600≈0.8): no net acetate production was observed
doubling time tD ([1]; autotrophic, 5 g/L arginine, 22 psi CO/CO2/H2, until OD600≈0.8): 3.5 h
specific growth rate μ ([1]; autotrophic, 5 g/L arginine, until OD600≈0.8): 0.198
decrease of doubling time by arginine supplementation [1]: 52%
decrease of doubling time by arginine supplementation ([1]; listed as Arginine): over 50%
doubling time tD in second stage after arginine depletion ([2]; 5 g arginine/L + 5 g fructose/L): ~40 h
growth faster compared to supplementation with yeast extract ([2]; vs 1 g/L yeast extract): ~3 fold
doubling time tD (BugLab) [3]: ~3 h
specific growth rate (BugLab) [3]: 0.21 h⁻¹
